Tests used:
Format in all cases: physicochemical
[1] = Storage stability of lyophilized formulation, HPLC of content and decomposed materials
Experimental: After the formulation as prepared according to Example 1 was stored at 50° C. for 2 months, the amounts of decomposed materials produced by hydrolysis were determined and compared. Typical decomposed materials are:
The relationship of the contents of compound 1, the amounts of the decomposed materials, and the added amounts of D-mannitol comprised in between the formulation before the storage and that after the storage at 50° C. for 2 months, is shown in Table 2. The determination was conducted using high performance liquid chromatography (HPLC). The determination conditions of HPLC are as shown below: • Device: Waters 600E,484,712 wisp,74 1,FD20A • Column: J'sphere ODS-L80, S-4μm, 80A 150×4.6 mmφ • Moving phase: water/acetonitrile/acetic acid=100/100/1 • Flow rate: 1.0 ml/min • Injected volume: • 20 μL (at the time for determination of impure materials) • 10 μL (at the time for determination of compound 1) • Detection wavelength • 275 nm • Detection sensibility (AUFS): • 0.64 (at the time for determination of impure materials) • 0.20 (at the time for determination of compound 1) • Solvent for dilution of samples: • water/acetonitrile/acetic acid=100/100/1 • Concentration of samples • 1 mg/ml (at the time for determination of impure materials) • 60.0 μg/ml (at the time for determination of compound 1)

[2] = Ross-Miles Foaming Test (foaming vs pH); details: 0.1% w/w in water for injection, 25° C., ISO 696-1975
Experimental: Compound 1 was dissolved in a water for injection (0.1% w/w), and the solution was quantitatively determined for foaming by Ross-Miles Foaming Test. Ross-Miles Foaming Test was conducted according to the method as defined in International Standard ISO 696-1975 except that the determination temperature was set 25° C.

[3] = Determination of surface tension by Wilhelmy method
Experimental: A compound to be determined that has been weighed is dissolved or suspended in a defined amount of a distilled water. As such, samples of aqueous solutions to be tested containing the compound at various concentrations are prepared, and each of the solutions is adjusted to be 50 ml aliquots.
Surface tension-measuring device (Kruess Inc., Type K12) and the personal computer for control and analysis are started, and a software for determining surface tension (Kruess Inc., K122) is launched. The determination site of the device is subjected to the circulation of the water from a thermostatic chamber to keep the temperature constant at 25° C. […]
(§1) Forty ml of a distilled water is poured into the vessel that have been washed, and the vessel is placed into the surface tension-measuring device. […] In this condition, surface tensions are determined. […] When the value of surface tension as determined one minute later is almost constant, then the value is recorded and the determination is stopped.
as §1, with “After the blank determination, 40” for “Forty”, “sample of aqueous solutions” for “distilled water”, “stopped. […]” for “stopped.”

[4] = D-mannitol 0% of the weight of compound 1
[5] = D-mannitol 25% of the weight of compound 1
[6] = D-mannitol 50% of the weight of compound 1
[7] = D-mannitol 100% of the weight of compound 1

With `CC1(C)CC[C@]2(C(=O)[O-])CC[C@]3(COC(=O)/C=C/c4cc(O)ccc4NC(=O)/C=C/C(=O)[O-])C(=CC[C@@H]4[C@@]5(C)CCC(=O)C(C)(C)[C@@H]5CC[C@]43C)[C@@H]2C1.[Na+].[Na+]` [compound 1] the “Content of compound 1 (after storage at 50° C. for 2 months)” value (“Content” for short) [1, 4] was 97.1 ± 0.1%, the “amount of Other related compounds, After storage at 50° C. for 2 months” value (“amount of Other related compounds … for 2 months” below) [1, 4] was 0.66 ± 0.14% and the “amount of Other related compounds, Before storage” value [1, 4] was 0.32 ± 0.02%. The “amount of decomposed material compound A, After storage at 50° C. for 2 months” value [1, 4] was 1.71 ± 0.08%, the “amount of decomposed material compound A, Before storage” value [1, 4] was 0.26 ± 0.02% and the “Content” value [1, 5] was 97.9 ± 0.4%. For the same compound, the “amount of Other related compounds … for 2 months” value [1, 5] was 0.87 ± 0.02%, the “amount of Other related compounds, Before storage” value [1, 5] was 0.33 ± 0.03% and the “amount of decomposed material compound A, After storage at 50° C. for 2 months” value [1, 5] was 0.44 ± 0.01%. The “amount of decomposed material compound A, Before storage” value [1, 5] was 0.13 ± 0.01%, the “Content” value [1, 6] was 98.0 ± 0.1% and the “amount of Other related compounds … for 2 months” value [1, 6] was 0.89 ± 0.05%. The “amount of Other related compounds, Before storage” value [1, 6] was 0.32 ± 0.02%, the “amount of decomposed material compound A, After storage at 50° C. for 2 months” value [1, 6] was 0.24 ± 0.01% and the “amount of decomposed material compound A, Before storage” value [1, 6] was 0.11 ± 0.01%. For the same compound, the “Content” value [1, 7] was 98.3 ± 0.1%, the “amount of Other related compounds … for 2 months” value [1, 7] was 1.24 ± 0.05% and the “amount of Other related compounds, Before storage” value [1, 7] was 0.31 ± 0.01%. The “amount of decomposed material compound A, After storage at 50° C. for 2 months” value [1, 7] was 0.23 ± 0.02%, the “amount of decomposed material compound A, Before storage” value [1, 7] was 0.11 ± 0.01% and the “foaming by Ross-Miles Foaming Test in relation to pH” value [2] was “the foaming was inhibited depending on the increase in pH”. For the same compound, the surface tension ([3]; 37.6 mM solution of compound 1 in water, 25° C., Wilhelmy method) was 53.9±0.2 mN/m and the “decrease in surface tension, pH 9.5 vs pH 7 to 7.5” value ([3]; aqueous solutions at various concentrations, pH 9.5 adjusted with sodium hydroxide, FIG. 1) was “the decrease in the surface tension is inhibited at pH 9.5 more than that at pH7 to 7.5”.

From patent US7645793B2, “Injectable pharmaceutical formulations” (Shionogi & Co., Ltd., priority 2001, dated 2010)
